According to the NIST ThermoML archive (doi:10.1021/je9004992):

Assay: molar heat capacity at constant pressure
Settings: Liquid, Small sample (50 mg) DSC

CCCCCCn1cc[n+](C)c1.F[B-](F)(F)F [1-hexyl-3-methylimidazolium tetrafluoroborate]
molar heat capacity at constant pressure [J/K/mol]
Settings	283.15 K	288.15 K	293.15 K	298.15 K	303.15 K	308.15 K	313.15 K	318.15 K	323.15 K
100 kPa	422.77	425	427.34	429.8	432.36	435.03	437.81	440.7	443.69
2000 kPa	422.81	425.04	427.38	429.83	432.39	435.06	437.84	440.72	443.72
4000 kPa	422.85	425.08	427.42	429.87	432.43	435.1	437.87	440.75	443.74
6000 kPa	422.89	425.12	427.46	429.91	432.47	435.13	437.9	440.78	443.77
8000 kPa	422.94	425.17	427.5	429.95	432.5	435.17	437.93	440.81	443.8
10000 kPa	422.98	425.21	427.54	429.99	432.54	435.2	437.97	440.84	443.82
12000 kPa	423.02	425.25	427.59	430.03	432.58	435.23	438	440.87	443.85
14000 kPa	423.07	425.29	427.63	430.07	432.61	435.27	438.03	440.9	443.88
20000 kPa	423.2	425.42	427.75	430.18	432.72	435.37	438.13	440.99	443.96
30000 kPa	423.41	425.63	427.95	430.38	432.91	435.55	438.29	441.14	444.09
40000 kPa	423.63	425.84	428.15	430.57	433.09	435.72	438.45	441.28	444.22
50000 kPa	423.85	426.05	428.36	430.77	433.28	435.89	438.61	441.43	444.35
60000 kPa	424.07	426.26	428.56	430.96	433.46	436.07	438.77	441.58	444.49

CCCCCCCC[n+]1ccn(C)c1.F[B-](F)(F)F [1-methyl-3-octylimidazolium tetrafluoroborate]
molar heat capacity at constant pressure [J/K/mol]
Settings	283.15 K	288.15 K	293.15 K	298.15 K	303.15 K	308.15 K	313.15 K	318.15 K	323.15 K
100 kPa	489.23	493.12	496.79	500.26	503.51	506.55	509.38	512	514.41
2000 kPa	489.23	493.12	496.79	500.25	503.5	506.55	509.38	512	514.41
4000 kPa	489.23	493.12	496.79	500.25	503.5	506.54	509.37	512	514.41
6000 kPa	489.24	493.11	496.78	500.24	503.5	506.54	509.37	512	514.41
8000 kPa	489.24	493.11	496.78	500.24	503.49	506.53	509.37	512	514.41
10000 kPa	489.24	493.11	496.78	500.24	503.49	506.53	509.37	511.99	514.41
12000 kPa	489.24	493.11	496.78	500.23	503.48	506.53	509.36	511.99	514.42
14000 kPa	489.24	493.11	496.77	500.23	503.48	506.52	509.36	511.99	514.42
20000 kPa	489.24	493.11	496.76	500.22	503.47	506.51	509.35	511.99	514.42
30000 kPa	489.25	493.1	496.75	500.2	503.45	506.49	509.34	511.98	514.43
40000 kPa	489.26	493.09	496.73	500.18	503.42	506.47	509.32	511.98	514.44
50000 kPa	489.26	493.09	496.72	500.16	503.4	506.45	509.31	511.97	514.44
60000 kPa	489.27	493.08	496.7	500.14	503.38	506.43	509.3	511.97	514.45
